What was measured:
Assay type in all cases: cell-based
[1] = test system: Human Multiple myeloma cell line (MM.1S); experiment: Inhibition of MM.1S cell proliferation (CellTiter luminescent viability); settings: Table IA1, IRAK4 inhibitor-based, 96 hours, read-out: Inhibitory activity (IC50, nM) on tumor cell proliferation, MM.1S
Experimental: (§1) The tumor cells used herein were cultured in a cell culture medium listed in table 3 at 37 °C in an incubator with 5% CO2. Prior to experimentation, all cell lines used were correctly identified by STR profiling, and tested negative for mycoplasma contamination using a mycoplasma detection kit through routine screenings.
(§2) The IC50 values of the compounds of the present disclosure (including the compounds in Table 1, Table 2, and Examples 1-468) were determined using the CellTiter-Meiluncell Luminescent Cell Viability Assay Kit from Dalian Meilun Biotech Co., Ltd. The detailed procedure is as follows: Tumor cells were seeded in 96-well cell culture plates at the densities specified in Table 4. On the following day, the test compounds of the present disclosure were subjected to serial dilution. The dilution can be performed according to one of the following two methods: • (1) The first dilution method: The test compounds of the present disclosure (including the compounds in Table 1, Table 2, and Examples 1-468) were subjected to 5-fold serial dilutions starting from a highest concentration of 2000 μM, resulting in a total of 9 concentrations from high to low (2000, 400, 80, 16, 3.2, 0.64, 0.128, 0.0256, 0.00512 μM). Subsequently, 0.5 μL of the test compound dilution was transferred into the 96-well plate containing the cells, with each well containing 100 μL of cell culture medium. […] Into the 96-well plate, the diluted test compounds and corresponding detection reagents were added, resulting in final test compound concentrations of 500 nM and 10 nM, respectively. The experimental procedure is described below using the diluted 2 μM test compound as an example.
(§3) 0.5 μL of the aforementioned diluted compound of the present disclosure (including the compounds in Table 1, Table 2, and Examples 1-468) was added to the seeded cells in 100 μL of medium, yielding a final test compound concentration of 10 nM. After the cells were treated with the compounds of the present disclosure for a specified period, the cell viability assay reagent was added to the culture medium according to the kit's instructions to determine cell viability. […] All controls were treated using the same procedure as the compounds of the present disclosure. The growth inhibition curves for the compounds of the present disclosure were plotted using Prism GraphPad software, and the IC50 values were calculated therefrom.

[2] = target: T1, IRAK4 (Homo sapiens, UniProt Q9NWZ3); experiment: Western blot degradation of IRAK4; settings: hPBMC Cell; 24 hours
T1 construct: expression of target proteins in cells; endogenous in cells
T1 sequence (Q9NWZ3 1-460): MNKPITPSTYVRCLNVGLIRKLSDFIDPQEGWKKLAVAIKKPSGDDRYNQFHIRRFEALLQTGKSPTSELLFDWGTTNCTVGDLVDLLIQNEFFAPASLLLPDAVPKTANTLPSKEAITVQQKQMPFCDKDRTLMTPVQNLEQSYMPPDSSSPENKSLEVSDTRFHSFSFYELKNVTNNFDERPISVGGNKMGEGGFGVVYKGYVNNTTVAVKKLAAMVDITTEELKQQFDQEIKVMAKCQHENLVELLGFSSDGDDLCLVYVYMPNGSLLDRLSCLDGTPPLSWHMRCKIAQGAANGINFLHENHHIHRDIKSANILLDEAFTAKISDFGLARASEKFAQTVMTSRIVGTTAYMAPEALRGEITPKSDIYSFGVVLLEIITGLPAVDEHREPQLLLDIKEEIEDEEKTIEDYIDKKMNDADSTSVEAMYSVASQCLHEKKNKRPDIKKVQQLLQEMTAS
Method in brief: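 Cells treated with compound, lysed, and target protein detected by Western blot (SDS-PAGE, nitrocellulose transfer). DC50 taken as the concentration giving band grayscale half that of DMSO control, estimated by concentration-response fitting; remaining protein (%) from target band normalised to internal control band; degradation (%) = 1 − remaining.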

[3] = test system: Human Acute T Lymphoblastic Leukemia Cells (Molt-4); experiment: Inhibition of Molt-4 cell proliferation (CellTiter luminescent viability); settings: Homo sapiens, MOLT-4, 96 h, Table IA2, IRAK4 inhibitor-based, 96 hours; for inhibition at 0.01 µM: Molt-4, 10 nM, read-out: Inhibition Rate at 10 nM (%); for inhibition at 0.5 µM: Molt-4, 500 nM, read-out: Inhibition Rate at 500 nM (%)
Experimental: as §1, §2, §3

Structure (SMILES)	IC50 [1] [nM]	Degradation of substrate protein IRAK4 (substrate protein remaining %) [2]	inhibition at 0.01 µM [3] [%]	inhibition at 0.5 µM [3] [%]
COc1cc2nn([C@H]3CC[C@H](CN4C[C@@H]5C[C@H]4CN5c4ccc5c(c4)C(=O)N(N4CCC(=O)NC4=O)C5=O)CC3)cc2cc1NC(=O)c1cccc(C(F)(F)F)n1 [GT-08648, N-(2-((1S,4r)-4-(((1S,4S)-5-(2-(2,4-dioxotetrahydropyrimidin-1(2H)-yl)-1,3-dioxoisoindolin-5-yl)-2,5-diazabicyclo[2.2.1]heptan-2-yl)methyl)cyclohexyl)-6-methoxy-2H-indazol-5-yl)-6-(trifluoromethyl) picolinamide]	–	A (0%≤substrate protein remaining %≤80%)	15 to 20	15 to 20
COc1cc2nn([C@H]3CC[C@H](CN4C[C@H]5C[C@@H]4CN5c4ccc5c(c4)C(=O)N(N4CCC(=O)NC4=O)C5=O)CC3)cc2cc1NC(=O)c1cccc(C(F)(F)F)n1 [GT-08650, N-(2-((1R,4r)-4-(((1R,4R)-5-(2-(2,4-dioxotetrahydropyrimidin-1(2H)-yl)-1,3-dioxoisoindolin-5-yl)-2,5-diazabicyclo[2.2.1]heptan-2-yl)methyl)cyclohexyl)-6-methoxy-2H-indazol-5-yl)-6-(trifluoromethyl) picolinamide]	–	A (0%≤substrate protein remaining %≤80%)	20 to 40	15 to 20
COc1cc2nn([C@H]3CC[C@H](CN4CC5CCC(C4)N5c4ccc5c(c4)C(=O)N(N4CCC(=O)NC4=O)C5=O)CC3)cc2cc1NC(=O)c1cccc(C(F)(F)F)n1 [GT-08652, N-(2-((1r,4r)-4-((8-(2-(2,4-dioxotetrahydropyrimidin-1(2H)-yl)-1,3-dioxoisoindolin-5-yl)-3,8-diazabicyclo[3.2.1]octan-3-yl)methyl)cyclohexyl)-6-methoxy-2H-indazol-5-yl)-6-(trifluoromethyl) picolinamide]	–	A (0%≤substrate protein remaining %≤80%)	15 to 20	15 to 20
COc1cc2nn([C@H]3CC[C@H](CN4CCN(c5cc6c(cc5F)C(=O)N(N5CCC(=O)NC5=O)C6=O)CC4)CC3)cc2cc1NC(=O)c1cccc(C(F)(F)F)c1 [GT-08664, N-(2-((1r,4r)-4-((4-(2-(2,4-dioxotetrahydropyrimidin-1(2H)-yl)-6-fluoro-1,3-dioxoisoindolin-5-yl)piperazin-1-yl)methyl)cyclohexyl)-6-methoxy-2H-indazol-5-yl)-3-(trifluoromethyl)benzamide]	–	A (0%≤substrate protein remaining %≤80%)	20 to 40	15 to 20

Second part, led by results:

IC50 [1] [nM]	Degradation of substrate protein IRAK4 (substrate protein remaining %) [2]	Structure (SMILES)	inhibition at 0.01 µM [3] [%]	inhibition at 0.5 µM [3] [%]
500 to 1000	A (0%≤substrate protein remaining %≤80%)	O=C1CCN(N2C(=O)c3ccc(N4CCC(CN5CCC(n6cc(NC(=O)c7coc(-c8ccnc(NCC9CC9)c8)n7)c(C(F)F)n6)CC5)CC4)cc3C2=O)C(=O)N1 [GT-04953, 2-(2-((cyclopropylmethyl)amino)pyridin-4-yl)-N-(3-(difluoromethyl)-1-(1-((1-(2-(2,4-dioxotetrahydropyrimidin-1(2H)-yl)-1,3-dioxoisoindolin-5-yl)piperidin-4-yl)methyl)piperidin-4-yl)-1H-pyrazol-4-yl) oxazole-4-carboxamide]	–	–
–	A (0%≤substrate protein remaining %≤80%)	COc1cc2nn([C@H]3CC[C@H](CN4CCN(c5cc6c(cc5F)C(=O)N(N5CCC(=O)NC5=O)C6=O)CC4)CC3)cc2cc1NC(=O)c1cccc(C(F)(F)F)n1 [GT-08651, N-(2-((1r,4r)-4-((4-(2-(2,4-dioxotetrahydropyrimidin-1(2H)-yl)-6-fluoro-1,3-dioxoisoindolin-5-yl)piperazin-1-yl)methyl)cyclohexyl)-6-methoxy-2H-indazol-5-yl)-6-(trifluoromethyl) picolinamide]	15 to 20	10 to 15

From patent US20260364184A1, “COMPOUND BASED ON OXOISOINDOLINYL-SUBSTITUTED TETRAHYDROPYRIMIDINE-DIONE AND USE THEREOF” (GLUETACS THERAPEUTICS (SHANGHAI) CO., LTD., priority 2023, published 2026)
